Common to all, as to format: biochemical
One assay has as its target T1, Urinkallikrein (Homo sapiens, UniProt P06870).
T1 construct: 1 ml Urin und 1 ml TRIS-Imidazol-Puffer mit pH 7,9; from tissue; host or cells: human urine
The assay is described as follows: Cleavage of chromogenic substrate by urinary kallikrein in human urine. The note with it: 1 ml human urine (pooled morning urine of healthy persons), per min; Substratkonzentration 2 x 10^-4 molar. How it is done: 1. Bestimmung von Urinkallikrein.
1 ml Urin und 1 ml TRIS-Imidazol-Puffer mit pH 7,9 und Ionenstärke 1,0 werden 5 Min. bei 37°C inkubiert undcänn zentrifugiert, um Sedimente zu entfernen.
In einer-Plastikküvette werden 1,4 ml dest. H20 von 37°C und 0,4 ml des Zentrifugats gut gemischt. Zu dieser Mischung gibt man 0,2 ml einer 2 x 10^-3 molaren wässrigen Substratlösung und durchmischt die Komponenten schnell. Dieses Gemisch wird genau 15 Min. bei 37°C inkubiert. Dann wird dem Reaktionsgemisch 0,2 ml Eisessig zugemischt, um die Enzymreaktion zu unterbrechen. Zur Farbmessung verwendet man eine Vergleichsprobe (Blindprobe), die aus den gleichen Komponenten zusammengesetzt ist, wobei jedoch der Eisessig vor Zugabe des Substrates zugesetzt wird, um die Enzymreaktion zu verhindern. Dann wird bei 405 nm photometrisch oder spektrophotometrisch die Menge der gebildeten farbigen Verbindung RNH 2 aus der Differenz zwischen der Blindprobe und der zu bestimmenden Probe ermittelt. Aus dem ermittelten Wert wird die Urinkallikreinaktivität im Urin nach der folgenden Formel berechnet: [formula] • Δ OD = Zunahme der optischen Dichte bei 405 nm während 15 Min. • V = Totalvolumen des Bestimmungsansatzes = 2,2 ml • 1000 = Umrechnungsfaktor zur Umwandlung von U in mU • F = Verdünnungsfaktor des Urins (2) • v = Volumen der Probe = 0,4 ml • ε = Extinktionskoeffizient dividiert durch 1000 = 10,4
Bei der oben beschriebenen Bestimmungsmethode misst man somit die Summe der Aktivitäten von Urinkallikrein und Urokinase. Um die genaue Urinkallikreinaktivität zu erhalten, muss man die Urokinaseaktivität abziehen, welche dadurch bestimmt werden kann, dass man in einem Vergleichsversuch durch Zugabe von 0,075 Einheiten Trypsininhibitor (Trypsininhibitor aus Rinderlunge) pro ml Puffer die Urinkallikreinaktivität vollständig hemmt und nur die Urokinaseaktivität misst.
(§1) Bei der Messung des durch die enzymatische Hydrolyse des Substrates gebildeten Spaltproduktes RrNH2 geht man von der Voraussetzung aus, dass das Spaltprodukt ein UV-Spektrum besitzt, das von demjenigen des Substrates verschieden und in Richtung höherer Wellenlängen verschoben ist. Die Absorption des Substrates bei 405 nm ist praktisch Null. p-Nitroanilin als Spaltprodukt weist ein Absorptionsmaximum bei 380 nm und einen molaren Extinktionskoeffizienten von 13'200 auf. Bei 405 nm ist der Extinktionskoeffizient nur wenig niedriger, d.h. […] Der Grad der enzymatischen Hydrolyse des Substrates, welcher der Menge des abgespaltenen p-Nitroanilins proportional ist, lässt sich durch spektrophotometrische Messung bei 405 nm bestimmen. Auch bei Anwesenheit eines Ueberschusses an Substrat wird die Messung bei 405 nm nicht gestört.
(§2) Bei den Substraten, die als chromogene Gruppe eine 2-Naphthylamino-, 4-Methoxy-2-naphthylamino-, 4-Methyl-cumaryl-(7)-amino- oder 1,3-Di(methoxycarbonyl)-phenyl-(5)-amino-Gruppe enthalten, wird die Menge des Spaltproduktes R-NH2 durch Fluoreszenzspektrophotometrie gemessen. In einem aus Enzym, Puffer und Substrat bestehenden Testsystem misst man kontinuierlich das energieärmere emittierte Licht bei 400-470 nm, nachdem man das gebildete fluoreszierende Spaltprodukt mit energiereicherem Licht erregt hat. Die pro Zeiteinheit gebildete Menge Spaltprodukt ist ein Mass für die vorhandene Enzymaktivität. 1 µMol Spaltprodukt pro Minute entspricht definitionsgemäss 1 Enzym-Einheit, bezogen auf ein gegebenes Substrat.

For the next assay, the target named is T2, Humanthrombin (Homo sapiens, UniProt P00734).
T2 construct: Humanplasmin und hu-manem NIH-Thrombin
Put plainly: Cleavage of chromogenic substrate by human NIH thrombin. The note with it: 1 NIH-Einheit human thrombin, per min; Substratkonzentration 2 x 10^-4 molar.
Description: as §1, §2

Assay [1] concerns the target T3, Submandibularis-Kallikrein (Homo sapiens, UniProt P06870).
T3 construct: Man mischt 0,5 ml Sputum mit 2 ml TRIS-Imidazol-Puffer; from tissue; host or cells: human sputum
Put plainly: Cleavage of chromogenic substrate by submandibular (glandular) kallikrein in human sputum. The note with it: 1 ml human sputum, per min; Substratkonzentration 2 x 10^-4 molar. How it is done: 2. Bestimmung des Glandulärkallikreins im Sputum: • Man mischt 0,5 ml Sputum mit 2 ml TRIS-Imidazol-Puffer (Ionenstärke 1,0) und präinkubiert die Mischung 5 Min. bei 37°C. Das Inkubat wird zentrifugiert. In eine Testküvette wird 1,5 ml dest. H2O von 37°C vorgelegt und mit 0,25 ml des Zentrifugats versetzt. Die Komponenten werden gut gemischt. Dann wird 0,2 ml 2 x 10-^3 molare wässrige Substratlösung zugesetzt und gemischt. Dann wird bei 405 nm die Extinktions- änderung kontinuierlich mittels eines Schreibers während 5-10 Min. verfolgt. Aus dem ermittelten Δ OD pro Min. wird mittels der nachstehenden Formel die Kallikreinaktivität pro ml Sputum in mU errechnet: [formula] • F = 5 • V = 1,95 • v = 0,25 • 1 U (Einheit) = Enzymmenge, die während 1 Min. 1 µMol Substrat unter optimalen oder sonst festgelegten Bedingungen in Bezug auf pH, Ionenstärke, Temperatur und Substratkonzentration zu spalten vermag
as §1, with “gestört. […]” for “gestört.”

The target of a further assay is T4, Humanplasmin (Homo sapiens, UniProt P00747).
T4 construct: da bei der Aktivierung aus 1 Molekül Plasminogen 1 Molekül Plasmin entsteht
T4 sequence (P00747 581-810 limits assumed): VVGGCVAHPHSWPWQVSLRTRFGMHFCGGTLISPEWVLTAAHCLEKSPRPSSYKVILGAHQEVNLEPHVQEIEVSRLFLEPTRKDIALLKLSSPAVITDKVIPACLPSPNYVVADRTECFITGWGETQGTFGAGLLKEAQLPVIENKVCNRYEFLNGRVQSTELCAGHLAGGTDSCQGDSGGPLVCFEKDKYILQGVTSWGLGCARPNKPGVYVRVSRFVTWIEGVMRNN
T4 sequence (P00747 97-580 partner limits assumed): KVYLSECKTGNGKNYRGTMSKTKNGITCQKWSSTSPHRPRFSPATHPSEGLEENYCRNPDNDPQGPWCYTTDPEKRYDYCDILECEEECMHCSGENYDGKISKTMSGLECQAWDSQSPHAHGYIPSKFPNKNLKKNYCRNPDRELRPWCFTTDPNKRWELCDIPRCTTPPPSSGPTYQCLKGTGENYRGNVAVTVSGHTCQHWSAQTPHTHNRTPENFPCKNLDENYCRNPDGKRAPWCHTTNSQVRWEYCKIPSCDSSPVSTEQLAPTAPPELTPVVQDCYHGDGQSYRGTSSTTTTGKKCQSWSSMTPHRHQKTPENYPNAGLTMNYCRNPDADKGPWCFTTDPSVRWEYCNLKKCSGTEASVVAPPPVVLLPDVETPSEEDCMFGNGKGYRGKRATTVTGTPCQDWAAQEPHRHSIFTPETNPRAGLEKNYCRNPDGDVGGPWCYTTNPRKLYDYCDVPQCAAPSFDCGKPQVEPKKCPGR
Put plainly: Cleavage of chromogenic substrate by human plasmin. The note with it: 1 CU-Einheit human plasmin, per min; Substratkonzentration 2 x 10^-4 molar. How it is done: 3. Bestimmung von Plasmin:
Man mischt 1,7 ml TRIS-Imidazol-Puffer (pH 7,5, Ionenstärke 0,2) bei 37°C mit 0,1 ml einer Lösung von Plasmin in 25%igem Glycerin und inkubiert die Mischung während 1 Min. bei 37°C. Dann gibt man der Mischung 0,2 ml einer wässrigen 2 x 10^-3 molaren Substxatlösung von 37°C zu und durchmischt das Ganze schnell. Man ermittelt dann kontinuierlich die pro Zeiteinheit aus dem Substrat freigesetzte Menge des Spaltproduktes R-NH2. Aus dem pro Min. ermittelten Wert berechnet man dann die Plasminaktivität pro ml Probe in mU nach der folgenden Formel: [formula] • ΔE = pro Min. freigesetzte Menge des Spaltproduktes • V = Totalvolumen des Testansatzes • v = Volumen der Probe • = Extinktionskoeffizient dividiert durch 1000
as §1, §2

Non-standard residues stand in square brackets, D forms with d. Residues, ends and D or L forms follow the SMILES beside them. *: point of attachment. Cha = N[C@@H](CC1CCCCC1)C(=O)O; dChg = N[C@@H](C(=O)O)C1CCCCC1; dPhg = N[C@@H](C(=O)O)c1ccccc1; pNA = O=[N+]([O-])c1ccc(N*)cc1

T1 sequence (P06870 25-262): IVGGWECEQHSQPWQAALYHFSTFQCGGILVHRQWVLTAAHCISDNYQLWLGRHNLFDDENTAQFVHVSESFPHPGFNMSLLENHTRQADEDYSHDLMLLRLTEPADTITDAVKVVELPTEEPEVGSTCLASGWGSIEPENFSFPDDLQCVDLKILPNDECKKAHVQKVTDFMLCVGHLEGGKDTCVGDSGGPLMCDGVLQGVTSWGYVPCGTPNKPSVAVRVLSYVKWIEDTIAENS
T3 sequence (P06870 25-262): as above

Take 2HBr.H-D-CHT-Pro-Arg-pNA [Beispiel 23]: on Urinkallikrein, the “Menge des durch 1 ml Humanurin pro Min. freigesetzten Spaltproduktes R-NH2 in Nanomol (Urinkallikrein)” value is given as 1,20 Nanomol. For the same compound, on Humanthrombin, the “Menge des durch 1 NIH-Einheit Thrombin pro Min. freigesetzten Spaltproduktes R-NH2 in Nanomol (Humanthrombin)” value was 45,8 Nanomol. Also, the “Menge des durch 1 ml Humansputum pro Min. freigesetzten Spaltproduktes R-NH2 in Nanomol (Submandibularis-Kallikrein)” value in assay [1] is given as 21,4 Nanomol. Also, the “Menge des durch 1 CU-Einheit Humanplasmin pro Min. freigesetzten Spaltproduktes R-NH2 in Nanomol (Humanplasmin)” value on Humanplasmin was 690 Nanomol.

Consider 2HBr.H-D-CHT-Tyr-Arg-pNA [Beispiel 45], for which the “Menge des durch 1 ml Humanurin pro Min. freigesetzten Spaltproduktes R-NH2 in Nanomol (Urinkallikrein)” value at Urinkallikrein is reported as 0,59 Nanomol. Also, the “Menge des durch 1 NIH-Einheit Thrombin pro Min. freigesetzten Spaltproduktes R-NH2 in Nanomol (Humanthrombin)” value at Humanthrombin is 9,5 Nanomol. The “Menge des durch 1 ml Humansputum pro Min. freigesetzten Spaltproduktes R-NH2 in Nanomol (Submandibularis-Kallikrein)” value in assay [1] was 10,9 Nanomol. Also, the “Menge des durch 1 CU-Einheit Humanplasmin pro Min. freigesetzten Spaltproduktes R-NH2 in Nanomol (Humanplasmin)” value at Humanplasmin came to 1252 Nanomol.

As for `N=C(N)NCCC[C@H](NC(=O)[C@H](CC1CCCCC1)NC(=O)[C@H](N)C1CCCCC1)C(=O)Nc1ccc([N+](=O)[O-])cc1` [Beispiel 1, H-D-CHG-CHA-Arg-pNA.2HBr] (H-[dChg]-[Cha]-Arg-pNA), the “Menge des durch 1 ml Humanurin pro Min. freigesetzten Spaltproduktes R-NH2 in Nanomol (Urinkallikrein)” value on Urinkallikrein is 0,84 Nanomol. The “Menge des durch 1 NIH-Einheit Thrombin pro Min. freigesetzten Spaltproduktes R-NH2 in Nanomol (Humanthrombin)” value on Humanthrombin was 8,27 Nanomol. For the same compound, the “Menge des durch 1 ml Humansputum pro Min. freigesetzten Spaltproduktes R-NH2 in Nanomol (Submandibularis-Kallikrein)” value in assay [1] was 12,9 Nanomol. The “Menge des durch 1 CU-Einheit Humanplasmin pro Min. freigesetzten Spaltproduktes R-NH2 in Nanomol (Humanplasmin)” value on Humanplasmin worked out at 699 Nanomol.

Regarding `CC(C)C[C@H](NC(=O)[C@H](N)C1CCCCC1)C(=O)N[C@@H](CCCNC(=N)N)C(=O)Nc1ccc([N+](=O)[O-])cc1` [Beispiel 11, 2HBr.H-D-CHG-Leu-Arg-pNA] (H-[dChg]-Leu-Arg-pNA), at Urinkallikrein, the “Menge des durch 1 ml Humanurin pro Min. freigesetzten Spaltproduktes R-NH2 in Nanomol (Urinkallikrein)” value is given as 0,60 Nanomol. For the same compound, at Humanthrombin, the “Menge des durch 1 NIH-Einheit Thrombin pro Min. freigesetzten Spaltproduktes R-NH2 in Nanomol (Humanthrombin)” value was 33,9 Nanomol. Moreover, in assay [1], the “Menge des durch 1 ml Humansputum pro Min. freigesetzten Spaltproduktes R-NH2 in Nanomol (Submandibularis-Kallikrein)” value was 11,6 Nanomol. The “Menge des durch 1 CU-Einheit Humanplasmin pro Min. freigesetzten Spaltproduktes R-NH2 in Nanomol (Humanplasmin)” value on Humanplasmin stood at 381 Nanomol.

For `CC(C)[C@@H](N)C(=O)N[C@@H](CC1CCCCC1)C(=O)N[C@@H](CCCNC(=N)N)C(=O)Nc1ccc([N+](=O)[O-])cc1` [Beispiel 12, 2HBr.H-D-Val-CHA-Arg-pNA] (H-[dV]-[Cha]-Arg-pNA), the “Menge des durch 1 ml Humanurin pro Min. freigesetzten Spaltproduktes R-NH2 in Nanomol (Urinkallikrein)” value on Urinkallikrein is reported as 2,75 Nanomol. The “Menge des durch 1 NIH-Einheit Thrombin pro Min. freigesetzten Spaltproduktes R-NH2 in Nanomol (Humanthrombin)” value at Humanthrombin is 4,0 Nanomol. In addition, the “Menge des durch 1 ml Humansputum pro Min. freigesetzten Spaltproduktes R-NH2 in Nanomol (Submandibularis-Kallikrein)” value in assay [1] is 30,5 Nanomol. The “Menge des durch 1 CU-Einheit Humanplasmin pro Min. freigesetzten Spaltproduktes R-NH2 in Nanomol (Humanplasmin)” value on Humanplasmin is reported as 421 Nanomol.

Turning to `CC[C@@H](C)[C@@H](N)C(=O)N[C@@H](CC1CCCCC1)C(=O)N[C@@H](CCCNC(=N)N)C(=O)Nc1ccc([N+](=O)[O-])cc1` [Beispiel 13, 2HBr.H-D-Ile-CHA-Arg-pNA] (H-[dI]-[Cha]-Arg-pNA), the “Menge des durch 1 ml Humanurin pro Min. freigesetzten Spaltproduktes R-NH2 in Nanomol (Urinkallikrein)” value at Urinkallikrein was 2,67 Nanomol. For the same compound, on Humanthrombin, the “Menge des durch 1 NIH-Einheit Thrombin pro Min. freigesetzten Spaltproduktes R-NH2 in Nanomol (Humanthrombin)” value is listed as 7,44 Nanomol. The “Menge des durch 1 ml Humansputum pro Min. freigesetzten Spaltproduktes R-NH2 in Nanomol (Submandibularis-Kallikrein)” value in assay [1] is on record as 36,6 Nanomol. In addition, on Humanplasmin, the “Menge des durch 1 CU-Einheit Humanplasmin pro Min. freigesetzten Spaltproduktes R-NH2 in Nanomol (Humanplasmin)” value was 446 Nanomol.

As for `CC(C)[C@@H](N)C(=O)N[C@@H](CC1CCCCC1)C(=O)N[C@@H](CCCCN)C(=O)Nc1ccc([N+](=O)[O-])cc1` [Beispiel 14, 2HBr.H-D-Val-CHA-Lys-pNA] (H-[dV]-[Cha]-Lys-pNA), the “Menge des durch 1 ml Humanurin pro Min. freigesetzten Spaltproduktes R-NH2 in Nanomol (Urinkallikrein)” value at Urinkallikrein was 1,02 Nanomol. Besides, the “Menge des durch 1 NIH-Einheit Thrombin pro Min. freigesetzten Spaltproduktes R-NH2 in Nanomol (Humanthrombin)” value at Humanthrombin is 0,35 Nanomol. The “Menge des durch 1 ml Humansputum pro Min. freigesetzten Spaltproduktes R-NH2 in Nanomol (Submandibularis-Kallikrein)” value in assay [1] is 6,7 Nanomol. Further, the “Menge des durch 1 CU-Einheit Humanplasmin pro Min. freigesetzten Spaltproduktes R-NH2 in Nanomol (Humanplasmin)” value on Humanplasmin was 505 Nanomol.

On to `CC[C@@H](C)[C@@H](N)C(=O)N[C@@H](CC1CCCCC1)C(=O)N[C@@H](CCCCN)C(=O)Nc1ccc([N+](=O)[O-])cc1` [Beispiel 15, 2HBr.H-D-Ile-CHA-Lys-pNA] (H-[dI]-[Cha]-Lys-pNA), for which the “Menge des durch 1 ml Humanurin pro Min. freigesetzten Spaltproduktes R-NH2 in Nanomol (Urinkallikrein)” value at Urinkallikrein is 2,50 Nanomol. Further, at Humanthrombin, the “Menge des durch 1 NIH-Einheit Thrombin pro Min. freigesetzten Spaltproduktes R-NH2 in Nanomol (Humanthrombin)” value is 0,39 Nanomol. In addition, the “Menge des durch 1 ml Humansputum pro Min. freigesetzten Spaltproduktes R-NH2 in Nanomol (Submandibularis-Kallikrein)” value in assay [1] is on record as 23,1 Nanomol. Moreover, the “Menge des durch 1 CU-Einheit Humanplasmin pro Min. freigesetzten Spaltproduktes R-NH2 in Nanomol (Humanplasmin)” value on Humanplasmin is listed as 440 Nanomol.

On to `N=C(N)NCCC[C@H](NC(=O)[C@H](Cc1ccccc1)NC(=O)[C@H](N)C1CCCCC1)C(=O)Nc1ccc([N+](=O)[O-])cc1` [Beispiel 16, 2HBr.H-D-CHG-Phe-Arg-pNA] (H-[dChg]-Phe-Arg-pNA), for which the “Menge des durch 1 ml Humanurin pro Min. freigesetzten Spaltproduktes R-NH2 in Nanomol (Urinkallikrein)” value at Urinkallikrein was 3,31 Nanomol. Moreover, at Humanthrombin, the “Menge des durch 1 NIH-Einheit Thrombin pro Min. freigesetzten Spaltproduktes R-NH2 in Nanomol (Humanthrombin)” value was 17,1 Nanomol. Further, the “Menge des durch 1 ml Humansputum pro Min. freigesetzten Spaltproduktes R-NH2 in Nanomol (Submandibularis-Kallikrein)” value in assay [1] is 32,2 Nanomol. In addition, the “Menge des durch 1 CU-Einheit Humanplasmin pro Min. freigesetzten Spaltproduktes R-NH2 in Nanomol (Humanplasmin)” value at Humanplasmin turned out to be 1200 Nanomol.

Take `N=C(N)NCCC[C@H](NC(=O)[C@H](CC1CCCCC1)NC(=O)[C@H](N)c1ccccc1)C(=O)Nc1ccc([N+](=O)[O-])cc1` [Beispiel 18, 2HBr.H-D-Ph'Gly-CHA-Arg-pNA] (H-[dPhg]-[Cha]-Arg-pNA): the “Menge des durch 1 ml Humanurin pro Min. freigesetzten Spaltproduktes R-NH2 in Nanomol (Urinkallikrein)” value on Urinkallikrein was 0,67 Nanomol. The “Menge des durch 1 NIH-Einheit Thrombin pro Min. freigesetzten Spaltproduktes R-NH2 in Nanomol (Humanthrombin)” value at Humanthrombin is listed as 4,53 Nanomol. The “Menge des durch 1 ml Humansputum pro Min. freigesetzten Spaltproduktes R-NH2 in Nanomol (Submandibularis-Kallikrein)” value in assay [1] was 8,5 Nanomol. Further, on Humanplasmin, the “Menge des durch 1 CU-Einheit Humanplasmin pro Min. freigesetzten Spaltproduktes R-NH2 in Nanomol (Humanplasmin)” value turned out to be 1200 Nanomol.
